Assays:
[1] = In vivo pharmacokinetics in rats; conditions: Wistar, rat, plasma, po, male rats, 2 mg/kg p.o.; for bioavailability: AUCnorm intragastral / AUCnorm i.v. (0.5 mg/kg), read-out: F (oral bioavailability)
Method: 2.4 In Vivo Pharmacokinetics in Rats
For in vivo pharmacokinetic experiments test compounds were administered to male Wistar rats intravenously at a dose of 0.5 mg/kg and intragastral at a dose of 2 mg/kg formulated as solutions using solubilizers such as PEG400 or Solutol in well-tolerated amounts.
For pharmacokinetics after intravenous administration test compounds were given as i.v. bolus and blood samples were taken at 2 min, 8 min, 15 min, 30 min, 45 min, 1 h, 2 h, 4 h, 7 h and 24 h after dosing. […] For pharmacokinetics after intragastral administration test compounds were given intragastral to fasted rats and blood samples were taken at 8 min, 15 min, 30 min, 45 min, 1 h, 2 h, 4 h, 7 h and 24 h after dosing. […] Blood was collected into Lithium-Heparintubes (Monovetten®, Sarstedt) and centrifuged for 15 min at 3000 rpm. An aliquot of 100 μL from the supernatant (plasma) was taken and precipitated by addition of 400 μL cold acetonitril and frozen at −20° C. over night. Samples were subsequently thawed and centrifuged at 3000 rpm, 4° C. for 20 minutes. Aliquots of the supernatants were taken for analytical testing using an Agilent 1200 HPLC-system with LCMS/MS detection. PK parameters were calculated by non-compartmental analysis using a PK calculation software.
PK parameters derived from concentration-time profiles after i.v.: CLplasma: Total plasma clearance of test compound (in L/kg/h); CLblood: Total blood clearance of test compound: CLplasma*Cp/Cb (in L/kg/h) with Cp/Cb being the ratio of concentrations in plasma and blood. PK parameters calculated from concentration time profiles after i.g.: Cmax: Maximal plasma concentration (in mg/L); Cmaxnorm: Cmax divided by the administered dose (in kg/L); Tmax: Time point at which Cmax was observed (in h). Parameters calculated from both, i.v. and i.g. concentration-time profiles: AUCnorm: Area under the concentration-time curve from t=0 h to infinity (extrapolated) divided by the administered dose (in kg*h/L); AUC(0−tlast)norm: Area under the concentration-time curve from t=0 h to the last time point for which plasma concentrations could be measured divided by the administered dose (in kg*h/L); t½: terminal half-life (in h); F: oral bioavailability: AUCnorm after intragastral administration divided by AUCnorm after intravenous administration (in %).

human GnRH receptor = biological target: T1, human GnRH receptor (Homo sapiens, UniProt P30968); assay: IP-One HTRF assay with buserelin stimulation; type: cell-based; conditions: CHO cells stably expressing human GnRH receptor; buserelin at EC80; read-out: Potency in IP-One HTRF assay with buserelin (at EC80) stimulation, given as IC50
T1 construct: host or cells: CHO cells stably expressing human GnRH receptor (line established by Prof. Thomas Gudermann)
T1 sequence (P30968 1-328): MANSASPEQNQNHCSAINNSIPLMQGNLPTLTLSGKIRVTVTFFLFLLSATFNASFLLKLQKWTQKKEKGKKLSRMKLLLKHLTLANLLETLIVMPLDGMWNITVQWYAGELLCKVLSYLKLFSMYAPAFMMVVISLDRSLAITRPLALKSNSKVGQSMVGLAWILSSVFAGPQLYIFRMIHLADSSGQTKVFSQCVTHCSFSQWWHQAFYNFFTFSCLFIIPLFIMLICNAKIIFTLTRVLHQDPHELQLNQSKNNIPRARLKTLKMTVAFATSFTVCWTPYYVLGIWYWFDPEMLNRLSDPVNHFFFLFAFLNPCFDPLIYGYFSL
How it was run: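 CHO cells stably expressing human GnRH receptor, preincubated 1 h with IP1-d2 at 37 °C, treated with compound and EC80 buserelin (LiCl present) for 1 h at 37 °C; IP1 measured by HTRF (665/620 nm ratio) after lysis 1 h at 22 °C. Ten concentrations, 20 μM–1 nM, duplicate; IC50 by 4-parameter fit.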

Row | SMILES | half-life [1] [h] | bioavailability [1] [%] | IC50 (human GnRH receptor) [nM]
1 | O=C(NCc1ncc(C(F)(F)F)cc1F)c1ccc2c(c1)C1(CCS(=O)(=O)CC1)[C@H](C1CC1)N2S(=O)(=O)c1ccc(F)cc1 (single isomer, unassigned) [Example 1.1] | 5.2 | 32 | 93
2 | O=C(NCc1ncc(C(F)(F)F)cc1Cl)c1ccc2c(c1)C1(CCS(=O)(=O)CC1)[C@H](C1CC1)N2S(=O)(=O)c1ccc(F)cc1 [Example 3.1, (2S)—N-{[3-chloro-5-(trifluoromethyl)pyridin-2-yl]methyl}-2-cyclopropyl-1-[(4-fluorophenyl)sulfonyl]-1,2,2′,3′,5′,6′-hexahydrospiro[indole-3,4′-thiopyran]-5-carboxamide 1′,1′-dioxide] | 17 | 87 | 21
3 | N#Cc1cccc(S(=O)(=O)N2c3ccc(C(=O)NCc4ncc(C(F)(F)F)cc4Cl)cc3C3(CCS(=O)(=O)CC3)[C@@H]2C2CC2)c1 (single isomer, unassigned) [Example 10.1] | 3.3 | 23 | 14
